In PMC7588595, “Small-molecule active pharmaceutical ingredients of approved cancer therapeutics inhibit human aspartate/asparagine-β-hydroxylase” (Bioorganic & Medicinal Chemistry, 2020):
Where a name gives a salt, the structure may show the parent alone. Read-outs that look alike come from different tables or passages of the source.

Molecular target: T1, human AspH (His6-AspH315–758) (Homo sapiens, UniProt Q12797)
T1 construct: N-Terminally His6-tagged human AspH315–758 (His6-AspH315–758) was produced in Escherichia coli BL21 (DE3) cells; made in house; host or cells: Escherichia coli BL21 (DE3), pET-28a(+) vector
T1 sequence (Q12797 315-758): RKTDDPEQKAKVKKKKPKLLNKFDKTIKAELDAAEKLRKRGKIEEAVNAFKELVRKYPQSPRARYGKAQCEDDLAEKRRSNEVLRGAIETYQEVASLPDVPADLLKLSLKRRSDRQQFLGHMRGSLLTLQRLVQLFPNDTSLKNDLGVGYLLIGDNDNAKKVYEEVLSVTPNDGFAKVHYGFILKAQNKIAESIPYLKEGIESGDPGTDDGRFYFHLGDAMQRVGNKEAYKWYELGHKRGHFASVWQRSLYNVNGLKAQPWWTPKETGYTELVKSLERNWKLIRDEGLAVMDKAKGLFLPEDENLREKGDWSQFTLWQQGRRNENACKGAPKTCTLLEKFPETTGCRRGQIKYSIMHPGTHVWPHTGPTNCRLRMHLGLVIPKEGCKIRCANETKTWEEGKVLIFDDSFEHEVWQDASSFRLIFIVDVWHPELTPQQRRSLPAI
Test: SPE-MS AspH inhibition assay (hFX-CP101-119 substrate hydroxylation)
Assay type: biochemical

[1] = AspH-inhibitor screening, 384-well Plate 1
[2] = AspH-inhibitor screening, 384-well Plate 1, substrate conversion
[3] = AspH-inhibitor screening, Plate 1-duplicate
[4] = AspH-inhibitor screening, Plate 1-duplicate, substrate conversion

SMILES | Plate 1 (% inhibition) [1] [%] | Plate 1 (% conversion) [2] [%] | Plate 1-duplicate (% inhibition) [3] [%] | Plate 1-duplicate (% conversion) [4] [%] | Plate 1 (% conversion) [%] | Plate 1 (% inhibition) [%] | Plate 1-duplicate (% conversion) [%] | Plate 1-duplicate (% inhibition) [%]
COc1cccc2c1C(=O)c1c(O)c3c(c(O)c1C2=O)C[C@@](O)(C(C)=O)C[C@@H]3O[C@H]1C[C@H](N)[C@H](O)[C@H](C)O1 [Daunorubicin hydrochloride] | -28.45 | 62.89 | -40.01 | 71.89 | – | – | – | –
Nc1ncn([C@H]2C[C@H](O)[C@@H](CO)O2)c(=O)n1 [Decitabine (Dacogen)] | 4.17 | 47.83 | 0.31 | 51.89 | – | – | – | –
CC(=O)N(O)CCCCCNC(=O)CCC(=O)N(O)CCCCCNC(=O)CCC(=O)N(O)CCCCCN [Deferoxamine mesylate] | 14.63 | 43.00 | 7.26 | 48.44 | – | – | – | –
C[C@@H]1C[C@H]2[C@@H]3CCC4=CC(=O)C=C[C@]4(C)[C@@]3(F)[C@@H](O)C[C@]2(C)[C@@]1(O)C(=O)CO [Dexamethasone (Decadron)] | 0.59 | 49.48 | 1.33 | 51.38 | – | – | – | –
C[C@@H](CN1CC(=O)NC(=O)C1)N1CC(=O)NC(=O)C1 [Dexrazoxane] | 16.70 | 42.04 | 14.98 | 44.61 | – | – | – | –
CCc1cnn2c(NCc3ccc[n+]([O-])c3)cc(N3CCCC[C@H]3CCO)nc12 [Dinaciclib (SCH727965)] | 1.39 | 49.11 | 2.62 | 50.74 | – | – | – | –
CC(=O)O[C@@]12CO[C@@H]1C[C@H](O)[C@@]1(C)C(=O)[C@H](O)C3=C(C)[C@@H](OC(=O)[C@H](O)[C@@H](NC(=O)OC(C)(C)C)c4ccccc4)C[C@@](O)([C@@H](OC(=O)c4ccccc4)[C@H]21)C3(C)C [Docetaxel] | -5.60 | 52.34 | 2.03 | 51.03 | – | – | – | –
COc1cccc2c1C(=O)c1c(O)c3c(c(O)c1C2=O)C[C@@](O)(C(=O)CO)C[C@@H]3O[C@H]1C[C@H](N)[C@H](O)[C@H](C)O1 [Doxorubicin] | -11.25 | 54.95 | -1.25 | 52.66 | – | – | – | –
CN1CCC(COc2cnc(-c3cccc(Cn4nc(-c5cccc(C#N)c5)ccc4=O)c3)nc2)CC1 [EMD1214063] | 3.55 | 48.11 | 3.19 | 50.46 | – | – | – | –
Nc1ccccc1NC(=O)c1ccc(CNC(=O)OCc2cccnc2)cc1 [Entinostat] | -5.93 | 52.49 | -4.09 | 54.07 | – | – | – | –
CNC(=O)c1ccc(N2C(=S)N(c3ccc(C#N)c(C(F)(F)F)c3)C(=O)C2(C)C)cc1F [Enzalutamide] | -2.61 | 50.95 | -6.89 | 55.46 | – | – | – | –
Cn1cc(C2=C(c3cn(C4CCN(Cc5ccccn5)CC4)c4ccccc34)C(=O)NC2=O)c2ccccc21 [Enzastaurin] | -3.95 | 51.57 | -0.48 | 52.28 | – | – | – | –
COc1cccc2c1C(=O)c1c(O)c3c(c(O)c1C2=O)C[C@@](O)(C(=O)CO)C[C@@H]3O[C@H]1C[C@H](N)[C@@H](O)[C@H](C)O1 [Epirubicin hydrochloride] | -8.14 | 53.51 | -28.05 | 65.95 | – | – | – | –
C/C(=C\c1csc(C)n1)[C@@H]1C[C@@H]2O[C@]2(C)CCC[C@H](C)[C@H](O)[C@@H](C)C(=O)C(C)(C)[C@@H](O)CC(=O)O1 [Epothilone B (Patupilone)] | -5.33 | 52.21 | -7.34 | 55.68 | – | – | – | –
Cc1c(C(=O)Nc2ccc(N3C[C@@H](C)O[C@@H](C)C3)nc2)cccc1-c1ccc(OC(F)(F)F)cc1 [Erismodegib] | -2.59 | 50.95 | -6.71 | 55.37 | – | – | – | –
C#Cc1cccc(Nc2ncnc3cc(OCCOC)c(OCCOC)cc23)c1 [Erlotinib hydrochloride] | -99.93 | 95.90 | -12.97 | 58.47 | – | – | – | –

SMILES | Plate 1 (% inhibition) [1] [%] | Plate 1 (% conversion) [2] [%] | Plate 1-duplicate (% inhibition) [3] [%] | Plate 1-duplicate (% conversion) [4] [%] | Plate 1 (% conversion) [%] | Plate 1 (% inhibition) [%] | Plate 1-duplicate (% conversion) [%] | Plate 1-duplicate (% inhibition) [%]
C[C@]12CC[C@@H]3c4ccc(OC(=O)N(CCCl)CCCl)cc4CC[C@H]3[C@@H]1CC[C@@H]2OP(=O)(O)O [Estramustine sodium phosphate] | – | – | – | – | 17.18 | 70.54 | 20.11 | 64.39
COc1cc([C@@H]2c3cc4c(cc3[C@@H](O[C@@H]3O[C@@H]5CO[C@@H](C)O[C@H]5[C@H](O)[C@H]3O)[C@H]3COC(=O)[C@H]23)OCO4)cc(OC)c1O [Etoposide] | -0.43 | 49.95 | -2.73 | 53.40 | – | – | – | –
CO[C@H]1C[C@@H]2CC[C@@H](C)[C@@](O)(O2)C(=O)C(=O)N2CCCC[C@H]2C(=O)O[C@H]([C@H](C)C[C@@H]2CC[C@@H](OCCO)[C@H](OC)C2)CC(=O)[C@H](C)/C=C(\C)[C@@H](O)[C@@H](OC)C(=O)[C@H](C)C[C@H](C)/C=C/C=C/C=C/1C [Everolimus] | -18.20 | 58.15 | -27.79 | 65.82 | – | – | – | –
C=C1C[C@@H]2[C@H](CC[C@]3(C)C(=O)CC[C@@H]23)[C@@]2(C)C=CC(=O)C=C12 [Exemestane] | -2.81 | 51.05 | 2.16 | 50.97 | – | – | – | –
C=CC[C@@H]1/C=C(\C)C[C@H](C)C[C@H](OC)[C@H]2O[C@@](O)(C(=O)C(=O)N3CCCC[C@H]3C(=O)O[C@H](/C(C)=C/[C@@H]3CC[C@@H](O)[C@H](OC)C3)[C@H](C)[C@@H](O)CC1=O)[C@H](C)C[C@@H]2OC.O [FK 506_Tacrolimus] | -2.23 | 50.78 | -2.68 | 53.37 | – | – | – | –
Cl.O=C(/C=C/c1cccnc1)NCCCCC1CCN(C(=O)c2ccccc2)CC1 [FK-866 HCl_Daporinad] | 2.15 | 48.76 | -6.78 | 55.40 | – | – | – | –
CC(C)(C)NC(=O)[C@H]1CC[C@H]2[C@@H]3CC[C@H]4NC(=O)C=C[C@]4(C)[C@H]3CC[C@]12C [Finasteride] | -3.25 | 51.25 | 5.03 | 49.55 | – | – | – | –
O=c1[nH]c(=O)n([C@H]2C[C@H](O)[C@@H](CO)O2)cc1F [Floxuridine] | 0.74 | 49.41 | 5.87 | 49.13 | – | – | – | –
Nc1nc(F)nc2c1ncn2[C@@H]1O[C@H](COP(=O)(O)O)[C@@H](O)[C@@H]1O [Fludarabine phosphate] | 5.12 | 47.39 | 1.33 | 51.38 | – | – | – | –
O=c1[nH]cc(F)c(=O)[nH]1 [Fluorouracil] | 7.47 | 46.30 | 5.36 | 49.38 | – | – | – | –
CC(C)C(=O)Nc1ccc([N+](=O)[O-])c(C(F)(F)F)c1 [Flutamide] | 0.33 | 49.60 | 10.24 | 46.97 | – | – | – | –
C[C@]12CC[C@@H]3c4ccc(O)cc4C[C@@H](CCCCCCCCC[S+]([O-])CCCC(F)(F)C(F)(F)F)[C@H]3[C@@H]1CC[C@@H]2O (stereo partly shown) [Fulvestrant] | 40.68 | 30.96 | 22.43 | 40.92 | – | – | – | –
CC(C)NC[C@@H](C(=O)N1CCN(c2ncnc3c2[C@H](C)C[C@H]3O)CC1)c1ccc(Cl)cc1 [GDC-0068] | -1.30 | 50.35 | 4.48 | 49.82 | – | – | – | –
CS(=O)(=O)N1CCN(Cc2cc3nc(-c4cccc5[nH]ncc45)nc(N4CCOCC4)c3s2)CC1 [GDC-0941_Pictilisib] | 1.37 | 49.12 | 2.57 | 50.77 | – | – | – | –
Cc1c(CN2CCN(C(=O)[C@H](C)O)CC2)sc2c(N3CCOCC3)nc(-c3cnc(N)nc3)nc12 [GDC-0980] | 2.44 | 48.62 | 1.54 | 51.28 | – | – | – | –
